In brackets after ≈: the same amount, converted by molar mass.
Assays:
S. aureus ATCC 29213 = test: microbe, parasite or virus in culture; details: Staphylococcus aureus, ATCC29213, read-out: MIC (µg/mL)
in vitro [1] = details: mouse, liver microsomes
in vitro [2] = details: mouse, liver microsomes; remark: listed apart in the source
in vitro [3] = details: mouse, plasma

SMILES | MIC (S. aureus ATCC 29213) [µg/mL] | also measured
CCCCOc1ccc(C(=O)NNC(=S)NC(C)=O)cc1 [1a] | 1.56 (≈ 5.04 µM) | –
CC(=O)NC(=S)NNC(=O)c1ccc(OC2CCCCC2)cc1 [1m] | 1.56 (≈ 4.65 µM) | –
CC(=O)NC(=S)NNC(=O)c1ccc(OCCCC(C)C)cc1 [1e] | 3.12 (≈ 9.25 µM) | –
CCC1CCC(c2ccc(C(=O)NNC(=S)NC(C)=O)cc2)CC1 (centres unmarked) [1w, N-(2-(4-(4-ethylcyclohexyl)benzoyl)hydrazine-1-carbonothioyl)acetamide] | 0.2 (≈ 0.576 µM) | –
CCCCCOc1ccc(C(=O)NNC(=S)NC(C)=O)cc1OCCCCC [1h] | 6.25 (≈ 15.3 µM) | –
COCCCOc1ccc(C(=O)NNC(=S)NC(C)=O)cc1 [1f] | > 100 | –
CC(=O)NC(=S)NNC(=O)c1ccc(N2CCOCC2)cc1 [1x] | 100 (≈ 310 µM) | –
COc1ccc2c(c1)[C@]13CCCC[C@@H]1[C@H](C2)N(C)CC3 [Dextromethorphan] | – | microsomal CLint (in vitro [1]): 179 µL/min/mg; half-life (in vitro [2]): 7.7 min
CC(=O)NC(=S)NNC(=O)c1ccc(Oc2ccccc2)cc1 [1n] | 3.12 (≈ 9.47 µM) | –
CCCCCOc1ccc(C(=O)NNC(=S)NC(C)=O)cc1O [1i] | 25 (≈ 73.7 µM) | –
CC(C)[N+](C)(CCOC(=O)C1c2ccccc2Oc2ccccc21)C(C)C [Propantheline bromide] | – | half-life (in vitro [3]): 38.3 min
CCCCCOc1ccc(CCC(=O)NNC(=S)NC(C)=O)cc1 [1q] | > 100 | –
CCCCCOc1ccc(C(=O)NNC(=S)NC(C)=O)c(C)c1 [1k] | 3.12 (≈ 9.25 µM) | –
COc1ccc2[nH]c([S+]([O-])Cc3ncc(C)c(OC)c3C)nc2c1 (centres unmarked) [Omeprazole] | – | microsomal CLint (in vitro [1]): 143 µL/min/mg; half-life (in vitro [2]): 9.7 min
O=C(O)Cc1ccccc1Nc1c(Cl)cccc1Cl [Diclofenac] | – | microsomal CLint (in vitro [1]): 121 µL/min/mg; half-life (in vitro [2]): 11.5 min
CC(=O)NC(=S)NNC(=O)c1ccc2ccccc2c1 [1t] | 6.25 (≈ 21.8 µM) | –
CCCOc1ccc(C(=O)NNC(=S)NC(C)=O)cc1 [B5] | 6.25 (≈ 21.2 µM) | –
CC(=O)NC(=S)NNC(=O)c1ccc(O)c(O)c1 [1j] | 100 (≈ 371 µM) | –
CCCCCOc1ccc(CC(=O)NNC(=S)NC(C)=O)cc1 [1p] | 25 (≈ 74.1 µM) | –
CC(=O)NC(=S)NNC(=O)c1ccc(C2CCCCC2)cc1 [1v, N-(2-(4-cyclohexylbenzoyl)hydrazine-1-carbonothioyl)acetamide] | 0.39 (≈ 1.22 µM) | –
CC(=O)NC(=S)NNC(=O)c1ccc(C2CC2)cc1 [1u] | 3.12 (≈ 11.2 µM) | –
CCCCCCOc1ccc(C(=O)NNC(=S)NC(C)=O)cc1 [1c, N-(2-(4-(n-hexoxy)benzoyl)hydrazine-1-carbonothioyl)acetamide] | 1.56 (≈ 4.62 µM) | –
CC(=O)NC(=S)NNC(=O)c1ccc(-c2ccccc2)cc1 [1r] | 1.56 (≈ 4.98 µM) | –
CC(=O)NC(=S)NNC(=O)c1cccc(-c2ccccc2)c1 [1s] | 3.12 (≈ 9.96 µM) | –
CCCCCOc1ccc(C(=O)NNC(=S)NC(C)=O)nc1 [1o] | 25 (≈ 77.1 µM) | –
CCCCCCCCCCCOc1ccc(C(=O)NNC(=S)NC(C)=O)cc1 [1d] | 100 (≈ 245 µM) | –

Source: article doi:10.1101/2024.09.05.611349v1 (biorxiv, 2024)
